As a reminder, the IC50 is the midpoint of a concentration-inhibition curve.

The record followed here is paper PMC11477209, “Toxicological Evaluation of Kaempferol and Linearolactone as Treatments for Amoebic Liver Abscess Development in Mesocricetus auratus” (International Journal of Molecular Sciences, 2024).

Values after ≈ are worked out from the molar mass of the structure shown.

Series [1] concerns CHO-K1 cells. Nature of the series: MTT cytotoxicity assay. In kind it is cell-based, Chinese hamster. Particulars: 24 h, MTT. For orientation: Tetrazolium dyes change colour on reduction, which living cells bring about.
In series [2] the test system is E. histolytica trophozoites (amoebic liver abscess). Kind of series: Amoebic liver abscess (ALA) model, antiparasitic protocol. The format is in vivo, Mesocricetus auratus. An excerpt:
M. auratus was used as an animal model because the hamster is naturally susceptible to infection by E. histolytica and can develop amoebic colitis or extraintestinal complications such as an ALA [71]. In this context, the hamster can be used to search for new alternative therapeutic agents against amoebiasis. The hamsters were acquired from Charles River Laboratories Inc. (Wilmington, MA, USA) in 2017 by Centro de Investigación y de Estudios Avanzados del Instituto Politécnico Nacional ([…]-IPN). […] Male hamsters (sexually mature and homozygous) weighing 95 ± 5 g and ≈10 weeks old were selected for the experiments. They were maintained in aseptic conditions at 25 ± 1 °C, 50 ± 3% humidity, a 12 h photoperiod, and ad libitum access to a standard diet (LabDiet; Richmond, IN, USA) and water (Figure 5A). The hamsters were housed in polycarbonate boxes (five per box), with an American Iron and Steel Institute (AISI) lid and wood shavings as bedding, in a controlled room of the Animal Production and Experimentation Unit (UPEAL) from […]-IPN (Figure 5A). Additionally, the health state of the hamsters and their adaptation to the new laboratory conditions were evaluated for 15 days to decrease their stress and anxiety levels. This study was carried out according to the Official Mexican Regulations (NOM-062-ZOO-1999) and NC3Rs ARRIVE [60, 72]. The protocol was approved by the Institutional Animal Care and Use Committee (Reg. No. 0183-16). Finally, the hamsters were not subjected to any previous experimental procedure or any additional treatment before beginning the experimental procedures (see File S1, NC3Rs ARRIVE Guidelines Checklist). Compounds that are prohibited and/or not recommended for use in animals by the American Veterinary Medical Association (Guidelines for the Euthanasia of Animals) were not used.
These experiments were performed with three independent biological replicates. For each replicate, twenty-five hamsters were randomly distributed (simple type) into five experimental groups (five animals per group). The sample size was determined based on the Organization for Economic Cooperation and Development (OECD) recommendations that establish the minimum number of individuals required for the tests so as not to sacrifice animals unnecessarily. Laparotomy was performed in aseptic conditions by using depilation, iodine solution, as well as sterile field cloths. Subsequently, an intra-hepatic puncture was made to deliver 1.5 × 10^6 virulent E. histolytica trophozoites in 100 μL of 1× PBS into the left hepatic lobe for ALA induction (Figure 5A-3). The injection site was immediately covered by applying a gel foam pad to maintain hemostasis. The abdominal layers were sutured discontinuously by single vertical stitches using Vicryl synthetic absorbable suture with a triangular pointed half circle needle. Irregular edges or folds in the surgical wound were eliminated to avoid tissue devitalization or possible infections. The development of a hepatic ALA was monitored for 4 days (Figure 5A-4).
(Figure 5B). The compounds were administered by the i.p. route because the peritoneal cavity presents rapid fluid absorption into the bloodstream, and initial biotransformation by the gastrointestinal tract is avoided. […] The hamsters were evaluated 24 h post-treatment to detect any signs of discomfort/pain or toxicity. The humane endpoint criteria used in this study were >20% body weight loss overnight, cachexia, recumbence, lethargy, respiratory distress, inability to reach food and water, lack of grooming, and ulceration around the surgical site, among others. Additionally, the weight of hamsters was determined at the beginning and end of the experiment with an electronic bascule (CS200, Ohaus; Parsippany, NJ, USA), and the ALA volume was calculated based on imaging (Figure 5B-1). […]

Series [3] relates to E. histolytica trophozoites (virulent HM-1 strain). Nature of the series: microbe, parasite or virus in culture. Conditions: Entamoeba histolytica, 48 h, read-out: IC50 HM-1, 48 h, flow cytometry. On the technique in general: Flow cytometry measures light scatter and fluorescence of single cells or particles in a stream.
For series [4] the following is noted: ALA hamsters.

Turning to `C[C@]12C[C@H](c3ccoc3)OC(=O)[C@H]1CCC13COC(=O)C1=CC=C[C@H]32` (stereo partly drawn) [LL, (4S,7R,9R,10S)-7-(furan-3-yl)-9-methyl-6,16-dioxatetracyclo[8.7.0.01,14.04,9]heptadeca-11,13-diene-5,15-dione], the “biological activity symbol on IC50 CHO-K1” value in series [1] is reported as “-”. Moreover, in series [1] (Cricetulus griseus, CHO-K1, read-out: IC50 CHO-K1), the IC50 is 300 µg/mL (≈ 881 µM). In addition, in series [2] (ALA characteristics), the Edges entry was “Regular and well defined”; the Leukocyte infiltrate result is on record as “+/−”; the Liquid result is recorded as “−”; the Morphology result is recorded as “Loculated ovoid”. Moreover, the “ALA Volume” value in series [2] (MRI, i.p. 4 days) is recorded as 562.3 ± 23.3 * mm^3. Also, in series [2] (T1), the “MRI T1 signal of ALA” value is “Intermediate intensity”. Moreover, the “MRI T2 signal of ALA” value in series [2] (T2) is “hypointense”. Further, the “ALA Weight” value in series [2] (i.p. 4 days, KP 5, LL 10, MTZ 10 mg/kg/day) stood at 0.40 ± 0.20 g. For the same molecule, the IC50 in series [3] was determined as 7.8 µg/mL (≈ 22.9 µM). For the same molecule, the “change in body weight compared with the control (disease-free) group” value in series [4] is given as −0.21%. For the same molecule, in series [4] (i.p. 4 days), the Hamster weight was 93.4 ± 7.2 g, the Survival rate is 100% and the Toxicity signs entry is reported as “None”.
